Experiments:
[1] = In vitro skin diffusion study, flow-through diffusion cells; type: in vitro ADME, human; conditions: o/w cream with 2% octyl salicylate vs control cream without, 24 hours, 32° C, receptor 20% EtOH in water, p<0:05
Experimental: In vitro diffusion experiments were performed using stainless steel flow-through diffusion cells, using human epidermis maintained at 32° C. The receptor solution consisted of 20% EtOH in Milli-Q water. Eight cells for each condition were treated with 100 mg of appropriate donor phase. Samples were collected at appropriate time points and analysed by high performance liquid chromatography (HPLC).

[2] = In vitro skin tape-stripping study; type: in vitro ADME, human; conditions: o/w cream with octyl salicylate vs control cream without; 10 hours after application; 20 tape strips
Experimental: Experiments were performed using full thickness human skin, after removal of the subcutaneous layer. Each skin sample was treated with 40 mg of appropriate donor phase. Serial sampling of the skin was completed at different time points after donor application, by tape stripping (3M Corp Adhesive tape) with a pressure load of 240 g/cm^2. Each tape strip removed approximately 1 layer of stratum corneum, and in each case, 20 tape strips were performed. Tape strips were extracted with methanol: chloroform and analysed by high performance liquid chromatography (HPLC).

increase of the cumulative amount across human epidermis compared with the control formulation [1] | amount in the upper and middle regions of the stratum corneum (tape strips) [2] | Structure (SMILES)
39% |  | O=c1c(-c2ccc(O)cc2)coc2cc(O)cc(O)c12 [genistein]
 | increase the amount | COC1=C(OC)C(=O)C(C/C=C(\C)CC/C=C(\C)CC/C=C(\C)CC/C=C(\C)CC/C=C(\C)CC/C=C(\C)CC/C=C(\C)CC/C=C(\C)CC/C=C(\C)CCC=C(C)C)=C(C)C1=O [CoQ10, Coenzyme Q10]
 | increase the amount | O=C(O)CC(O)(CC(=O)O)C(=O)O [citric acid]

— US20050271692A1, “Topical cosmetic compositions” (Cosmeceutic Solutions Pty. Ltd., priority 2002, published 2005)
